The values below come from patent US6476027B1, “N-hydroxy 4-sulfonyl butanamide compounds” (Monsanto Company, priority 1997, dated 2002).

The target of one data set is T1, recombinant human MMP-1 (Homo sapiens, UniProt P03956).
T1 construct: made in house; host or cells: transfected HT-1080 cells (provided by Dr. Howard Welgus, Washington University)
T1 sequence (P03956 100-469): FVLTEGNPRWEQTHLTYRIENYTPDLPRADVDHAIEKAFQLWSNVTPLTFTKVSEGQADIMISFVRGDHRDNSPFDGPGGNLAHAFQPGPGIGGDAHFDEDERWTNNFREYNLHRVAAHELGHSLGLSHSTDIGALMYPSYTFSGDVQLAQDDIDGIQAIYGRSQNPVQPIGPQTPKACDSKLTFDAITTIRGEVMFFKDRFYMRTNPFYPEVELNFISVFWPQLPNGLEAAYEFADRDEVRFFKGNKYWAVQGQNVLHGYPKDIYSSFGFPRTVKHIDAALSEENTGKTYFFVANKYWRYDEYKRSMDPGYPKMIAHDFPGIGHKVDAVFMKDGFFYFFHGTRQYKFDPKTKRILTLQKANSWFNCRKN
As to the kind of experiment: In vitro metalloprotease inhibition, fluorogenic MCA peptide substrate. Format: biochemical. The note with it: room temperature, pH 7.5, 4 μM substrate, APMA-activated enzyme. As for the experimental part:
(§1) Briefly, 4-aminophenylmercuric acetate (APMA) or trypsin activated MMPs were incubated with various concentrations of the inhibitor compound at room temperature for 5 minutes.
(§2) More specifically, recombinant human MMP-13 and MMP-1 enzymes were prepared in laboratories of the assignee. MMP-13 was expressed in baculovirus as a proenzyme, and purified first over a heparin agarose column and then over a chelating zinc chloride column. The proenzyme was activated by APMA for use in the assay. MMP-1 expressed in transfected HT-1080 cells was provided by Dr. Howard Welgus of Washington University, St. Louis, Mo. The enzyme was also activated using APMA and was then purified over a hydroxamic acid column.
(§3) MCA-ProLeuGlyLeuDpaAlaArgNH^2, wherein MCA is methoxycoumarin and Dpa is 3-(2,4-dinitrophenyl)-L-2,3-diaminopropionyl alanine.
(§4) The buffer used for assays contained 100 mM Tris-HCl, 100 mM NaCl, 10 mM CaCl2 and 0.05 percent polyethyleneglycol (23) lauryl ether at a pH value of 7.5.

A further data set addresses T2, recombinant human MMP-13 (Homo sapiens, UniProt P45452).
T2 construct: made in house
The data set is described as above. Format: biochemical. The following applies: room temperature, pH 7.5, 4 μM substrate, APMA-activated enzyme. As for the experimental part: as §1, §2, §3, §4

In the next data set the target is T3, MMP-2 (Homo sapiens, UniProt P08253).
T3 sequence (P08253 110-660): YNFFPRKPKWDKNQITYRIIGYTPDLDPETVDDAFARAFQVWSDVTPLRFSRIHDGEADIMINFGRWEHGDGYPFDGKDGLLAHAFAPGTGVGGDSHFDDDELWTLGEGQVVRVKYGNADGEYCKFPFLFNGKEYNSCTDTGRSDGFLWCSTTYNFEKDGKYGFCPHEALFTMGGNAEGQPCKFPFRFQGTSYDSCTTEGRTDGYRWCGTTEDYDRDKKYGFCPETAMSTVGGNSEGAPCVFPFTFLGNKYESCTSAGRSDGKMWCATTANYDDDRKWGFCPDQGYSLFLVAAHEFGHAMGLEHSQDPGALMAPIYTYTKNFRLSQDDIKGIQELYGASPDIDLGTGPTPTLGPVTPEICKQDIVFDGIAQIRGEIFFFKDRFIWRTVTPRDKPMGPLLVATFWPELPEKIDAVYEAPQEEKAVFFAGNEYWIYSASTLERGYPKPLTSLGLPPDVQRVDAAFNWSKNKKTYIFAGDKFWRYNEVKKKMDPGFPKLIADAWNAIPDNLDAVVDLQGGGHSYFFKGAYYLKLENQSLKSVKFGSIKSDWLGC
The data set is described as above. The note with it: room temperature, pH 7.5, 4 μM substrate. Format: biochemical. As for the experimental part: as §1, §3, §4

In data set [1] the test system is advanced, rapidly progressive, treatment-refractory solid tumor cancers. The note with it: cited from earlier work.

Where a name gives a salt, the structure may show the parent alone. A value given as a limit tells only on which side of the number the result lay.

With `Cc1ccc(Oc2ccc(S(=O)(=O)CCC(O)C(=O)NO)cc2)cc1C` (racemic) [Example 7], the half-maximal inhibitory concentration (IC50) is above 10000 nM at recombinant human MMP-1, 400 nM at recombinant human MMP-13 and 120 nM on MMP-2.
In the case of `CC(C)(CS(=O)(=O)c1ccc(Oc2ccccc2)cc1)[C@H](O)C(=O)NO` [Example 1], the values for the IC50 on recombinant human MMP-1, at recombinant human MMP-13 and against MMP-2 were 6300 nM, 1.9 nM and 0.3 nM, respectively.
For the compound `CC(C)(CS(=O)(=O)c1ccc(Oc2ccccc2)cc1)[C@@H](O)C(=O)NO` [Example 2], the IC50 on recombinant human MMP-1 is above 10000 nM; on recombinant human MMP-13, 8.8 nM; at MMP-2, 2 nM.
With `CC(C)(CCS(=O)(=O)c1ccc(Oc2ccccc2)cc1)C(=O)NO` [Example 3], the IC50 on recombinant human MMP-1 is above 10000 nM; on recombinant human MMP-13, 2600 nM; against MMP-2 it was 1000 nM.
With `O=C(NO)C(O)CCS(=O)(=O)c1ccc(Oc2ccccc2)cc1` (centres unmarked) [Example 4], the values for the IC50 on recombinant human MMP-1, on recombinant human MMP-13 and against MMP-2 were above 10000 nM, 54.4 nM and 15.8 nM, respectively.
The corresponding values for `CC(CCS(=O)(=O)c1ccc(Oc2ccccc2)cc1)C(=O)NO` (centres unmarked) [Example 5] are above 10000 nM, 1.8 nM and 3.2 nM.
Regarding `COc1ccc(S(=O)(=O)CCCC(=O)NO)cc1` [Example 6], on recombinant human MMP-13, the IC50 was determined as 2000 nM.
Take `CC(C)(CS(=O)(=O)c1ccc(Oc2ccccc2)cc1)[C@H](OCc1cccnc1)C(=O)NO` [Example 8a, (S)-N-Hydroxy-3,3-dimethyl-4-[(4-phenoxyphenyl)sulfonyl]-2-(3-pyridinylmethoxy)butanamide]: the IC50 on recombinant human MMP-1 was above 10000 nM; at recombinant human MMP-13 it was 5 nM; against MMP-2 it was 2.2 nM.
Regarding `CC(C)(CS(=O)(=O)c1ccc(Oc2ccccc2)cc1)[C@H](OCc1ccncc1)C(=O)NO` [Example 9a, (S)-N-Hydroxy-3,3-dimethyl-4-[(4-phenoxyphenyl)sulfonyl]-2-(4-pyridinylmethoxy)butanamide], the IC50 on recombinant human MMP-1 came to 7000 nM; at recombinant human MMP-13 it was 3 nM; against MMP-2, 1.3 nM.
As to `CC(C)(CS(=O)(=O)c1ccc(Oc2ccccc2)cc1)[C@H](OCc1ccccn1)C(=O)NO` [Example 10], the IC50 on recombinant human MMP-13 is 2.4 nM; on MMP-2, 1.5 nM.
With `CC(C)(C)OC(=O)N[C@H](C(=O)NO)C(C)(C)CS(=O)(=O)c1ccc(Oc2ccccc2)cc1` [Example 11], the IC50 on recombinant human MMP-1 was 50 nM; at recombinant human MMP-13, below 0.1 nM; against MMP-2 it was below 0.1 nM.
Take `CC(C)(CS(=O)(=O)c1ccc(Oc2ccccc2)cc1)[C@H](N)C(=O)NO` [Example 12]: the IC50 turned out to be 3300 nM on recombinant human MMP-1, 1.6 nM on recombinant human MMP-13 and 0.3 nM against MMP-2.
For the compound `CC(C)(CS(=O)(=O)c1ccc(Oc2ccccc2)cc1)[C@H](NC(=O)CN1CCOCC1)C(=O)NO` [Example 13], the IC50 at recombinant human MMP-1 was 770 nM; at recombinant human MMP-13, 1.4 nM; on MMP-2, 0.3 nM.
On to `CC(C)(CS(=O)(=O)c1ccc(Oc2ccccc2)cc1)[C@H](NC(=O)CN1CCOCC1)C(=O)NO` [Example 13a, (S)-N-[1-[(Hydroxyamino)carbonyl]-2,2-dimethyl-3-[(4-phenoxyphenyl)sulfonyl]-propyl]-4-morpholineacetamide Monohydrochloride], for which the IC50 came out at 1800 nM at recombinant human MMP-1, 1.8 nM at recombinant human MMP-13 and 0.6 nM against MMP-2.
`CC(C)(CS(=O)(=O)c1ccc(Oc2ccccc2)cc1)[C@H](NC(=O)CN1CCCC1)C(=O)NO` [Example 14]: the values for the IC50 on recombinant human MMP-1, at recombinant human MMP-13 and at MMP-2 were above 10000 nM, 2.4 nM and 1.8 nM, respectively.
On to `O=C(NO)C(CCS(=O)(=O)c1ccc(Oc2ccccc2)cc1)N1CCCCC1` (centres unmarked) [Example 15], for which the IC50 on recombinant human MMP-1 was above 10000 nM; at recombinant human MMP-13, 13.9 nM; against MMP-2, 7.7 nM.
Take `CC(C)(C)OC(=O)N1CCC(CCS(=O)(=O)c2ccc(Oc3ccccc3)cc2)(C(=O)NO)CC1` [Example 16]: the IC50 was above 10000 nM at recombinant human MMP-1, 400 nM at recombinant human MMP-13 and 169 nM on MMP-2.
In the case of `O=C(NO)C1(CCS(=O)(=O)c2ccc(Oc3ccccc3)cc2)CCNCC1` [Example 17], the IC50 at recombinant human MMP-1 is above 10000 nM; on recombinant human MMP-13, 169 nM; on MMP-2, 70 nM.
For the compound `CNC(=O)[C@@H](NC(=O)[C@H](CC(C)C)[C@H](O)C(=O)NO)C(C)(C)C` [marimastat, Marimastat], the “effect on cancer-specific antigens used as surrogate markers for biological activity” value in data set [1] (Phase I/II, colorectal, pancreatic, ovarian, prostate cancers) is “dose-related reduction in the rise of cancer-specific antigens”. In data set [1] (clinical trials, patients with advanced solid tumor cancers), the “most common drug-related toxicity” value is “musculoskeletal pain and stiffness”.

The IC50 is the concentration that inhibits the measured activity by half.
